ChEMBL document CHEMBL3616470, “Biological evaluation of angular disubstituted naphthoimidazoles as anti-inflammatory agents” (Bioorg Med Chem Lett, 2015)
One block for each molecule: values may come before it. Calls of active or inactive are those of the source. The rule behind the calls is not given here.

Assays:
RAW264.7 [1] = experiment: Cytotoxicity against mouse RAW264.7 cells assessed as cell viability at 10 to 20 uM after 24 hrs by MTT assay; type: cell-based; details: raw264.7, 24 h
RAW264.7 [2] = experiment: Antiinflammatory activity in mouse RAW264.7 cells assessed as inhibition of LPS-induced nitric oxide production treated 30 mins before LPS stimulation measured after 24 hrs by Griess assay; type: functional, cell-based
RAW264.7 [3] = experiment: Antiinflammatory activity in mouse RAW264.7 cells assessed as inhibition of LPS-induced NOS2 expression at 10 to 20 uM treated 30 mins before LPS stimulation measured after 24 hrs by Western blotting; type: functional, cell-based
RAW264.7 [4] = experiment: Antiinflammatory activity in mouse RAW264.7 cells assessed as inhibition of LPS-induced COX2 expression at 10 to 20 uM treated 30 mins before LPS stimulation measured after 24 hrs by Western blotting; type: functional, cell-based
RAW264.7 [5] = experiment: Inhibition of NFkappaB activation in mouse RAW264.7 cells assessed as reduction of LPS-induced IkappaBalpha level in cytosol at 20 uM treated 30 mins before LPS stimulation measured after 24 hrs by Western blotting; type: cell-based
RAW264.7 [6] = experiment: Inhibition of NFkappaB activation in mouse RAW264.7 cells assessed as reduction of LPS-induced IkappaBbeta level in cytosol at 20 uM treated 30 mins before LPS stimulation measured after 24 hrs by Western blotting; type: cell-based
RAW264.7 [7] = experiment: Inhibition of NFkappaB activation in mouse RAW264.7 cells assessed as reduction of LPS-induced p65 level in nucleus at 20 uM treated 30 mins before LPS stimulation measured after 24 hrs by Western blotting; type: cell-based
RAW264.7 [8] = experiment: Antiinflammatory activity in mouse RAW264.7 cells assessed as inhibition of LPS-induced NOS2 expression at 20 uM treated 30 mins before LPS stimulation measured after 24 hrs by Western blotting; type: functional, cell-based
RAW264.7 [9] = experiment: Antiinflammatory activity in mouse RAW264.7 cells assessed as inhibition of LPS-induced COX2 expression at 20 uM treated 30 mins before LPS stimulation measured after 24 hrs by Western blotting; type: functional, cell-based

SMILES: COc1cc(-n2c(-c3cccc(F)c3)nc3cc(OC)c4ccccc4c32)c(OC)c2ccccc12
- Activity (RAW264.7 [1]): Non-toxic

SMILES: COc1cc(-n2c(-c3ccsc3)nc3cc(OC)c4ccccc4c32)c(OC)c2ccccc12
- Activity (RAW264.7 [1]): Non-toxic

- IC50 (RAW264.7 [2]): 8.4 µM
SMILES: COc1cc(-n2c(-c3cccnc3)nc3cc(OC)c4ccccc4c32)c(OC)c2ccccc12
- Activity (RAW264.7 [1]): Non-toxic
- inhibition (RAW264.7 [2]): Dose-dependent effect
- inhibition (RAW264.7 [3]): Active
- inhibition (RAW264.7 [4]): Active
- inhibition (RAW264.7 [5]): Active
- inhibition (RAW264.7 [6]): Active
- inhibition (RAW264.7 [7]): Active

SMILES: COc1cc(-n2c(-c3ccc([N+](=O)[O-])cc3)nc3cc(OC)c4ccccc4c32)c(OC)c2ccccc12
- Activity (RAW264.7 [1]): Non-toxic

SMILES: COc1cc2nc(-c3ccc([N+](=O)[O-])cc3)n(-c3ccccc3Br)c2c2ccccc12
- Activity (RAW264.7 [1]): Non-toxic

SMILES: COc1cc(-n2c(-c3ccccc3)nc3cc(OC)c4ccccc4c32)c(OC)c2ccccc12
- Activity (RAW264.7 [1]): Non-toxic
- inhibition (RAW264.7 [8]): inactive
- inhibition (RAW264.7 [9]): inactive
